# pEC50: −log10 of the molar value. *1 amine or outer side, *2 acyl side, *3 side chain or, on linkers, in order; H or OH if unused. Where a SMILES comes first, the peptide text is derived from it. Side-chain parts run from the residue outwards. [ ]: non-standard residue; d: D form. The star is where a group is joined. Isobutyryl(2-(3-CN-5-F-Ph)) = CC(C)(C(=O)*)c1cc(F)cc(C#N)c1; C20 diacid = O=C(O)CCCCCCCCCCCCCCCCCCC(=O)*; γGlu = O=C(O)[C@H](CCC(=O)[*:2])N[*:1]; Phe(2-F) = N[C@@H](Cc1ccccc1F)C(=O)O; X68 = CC(C)[C@@H](CN[*:1])C(=O)[*:2]; X14 = CC(C)(C(=O)*)n1cc(Br)cn1; X1 = CC(C)(C(=O)*)c1cccnc1; AEEA = NCCOCCOCC(=O)O; Aib = CC(C)(N)C(=O)O; βAla = NCCC(=O)O
# What was measured:
# Assay type in all cases: cell-based
# [1] = target: T1, GLP-1 receptor (Homo sapiens, UniProt P43220); experiment: HitHunter cAMP assay, GLP-1 receptor; conditions: for pEC50: CHO cells stably expressing human GLP-1 receptor, cAMP accumulation, 30 min, read-out: EC50 GLP-1R; for Emax: CHO cells, cAMP, normalized to maximum signal from GLP-1 (high) and DMSO (low), read-out: Emax GLP-1R
# Experimental: CAMP accumulation was measured in Chinese hamster ovary (CHO) cells stably expressing the human GLP-1 receptor or GIP receptor using the HitHunter CAMP Assay for Small Molecules Kit (Eurofins). Briefly, cells were grown in Ham's F12 Nutrient Mix with 10% FBS and lifted with Cell dissociation buffer, Enzyme free, PBS based (ThermoFisher). Cells were pelleted and resuspended in Hank's buffered saline solution with 10 mM Hepes and 625 μM 3-isobutyl-1-methylxanthine. The antibody reagent was then added to cells at a 1:2 ratio and 5 μL of mixture was seeded in 384-well small volume white assay plates, at 10,000 cells/well. Cells were then treated with 50 nl compound in DMSO using an ECHO 550 acoustic dispenser (Labcyte) in a 20-point dose response format in triplicate for 30 min. Cells were the lysed and detection reagents added according to the manufacturer's protocol. After overnight incubation, luminescence was measured using a Perkin Elmer Envision plate reader. Raw data was normalized to the maximum signal from GLP-1 or GIP (high) and DMSO (low). Dose response curves were analyzed using GraphPad Prism 9.0.
# [2] = target: T2, GIP receptor (Homo sapiens, UniProt P48546); experiment: HitHunter cAMP assay, GIP receptor; conditions: for pEC50: CHO cells stably expressing GIP receptor, cAMP accumulation, 30 min, read-out: EC50 GIP-1R; for Emax: CHO cells, cAMP, normalized to maximum signal from GIP (high) and DMSO (low), read-out: Emax GIP-1R
# T2 sequence (P48546 22-466): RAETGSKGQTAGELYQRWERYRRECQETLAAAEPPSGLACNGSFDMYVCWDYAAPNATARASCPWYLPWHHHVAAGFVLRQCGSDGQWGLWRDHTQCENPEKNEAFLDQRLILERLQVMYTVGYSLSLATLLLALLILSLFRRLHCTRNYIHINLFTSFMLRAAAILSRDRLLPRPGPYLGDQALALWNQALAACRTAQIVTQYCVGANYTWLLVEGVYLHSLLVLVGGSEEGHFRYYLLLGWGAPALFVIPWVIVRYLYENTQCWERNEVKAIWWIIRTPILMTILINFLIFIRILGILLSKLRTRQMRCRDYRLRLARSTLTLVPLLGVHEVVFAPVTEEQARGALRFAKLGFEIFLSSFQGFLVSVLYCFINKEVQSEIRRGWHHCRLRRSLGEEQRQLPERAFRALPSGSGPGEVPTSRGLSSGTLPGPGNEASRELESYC
# [3] = target: T2, GIP receptor; experiment: PathHunter β-arrestin assay, GIP receptor; set-up: host or cells: PathHunter CHO-K1 GIPR β-Arrestin Cell Line; conditions: β-arrestin-2 recruitment, PathHunter CHO-K1 GIPR β-Arrestin Cell Line, 90 min at 37° C.; normalized to GIP; read-out: GIPR β Arrestin EC50
# [4] = target: T1, GLP-1 receptor; experiment: PathHunter β-arrestin assay, GLP-1 receptor; set-up: host or cells: PathHunter CHO-K1 GLP1R β-Arrestin Cell Line; conditions: β-arrestin-2 recruitment, PathHunter CHO-K1 GLP1R β-Arrestin Cell Line, 90 min at 37° C.; normalized to GLP-1; read-out: GLP-1R β Arrestin EC50
# T1 sequence (P43220 24-463): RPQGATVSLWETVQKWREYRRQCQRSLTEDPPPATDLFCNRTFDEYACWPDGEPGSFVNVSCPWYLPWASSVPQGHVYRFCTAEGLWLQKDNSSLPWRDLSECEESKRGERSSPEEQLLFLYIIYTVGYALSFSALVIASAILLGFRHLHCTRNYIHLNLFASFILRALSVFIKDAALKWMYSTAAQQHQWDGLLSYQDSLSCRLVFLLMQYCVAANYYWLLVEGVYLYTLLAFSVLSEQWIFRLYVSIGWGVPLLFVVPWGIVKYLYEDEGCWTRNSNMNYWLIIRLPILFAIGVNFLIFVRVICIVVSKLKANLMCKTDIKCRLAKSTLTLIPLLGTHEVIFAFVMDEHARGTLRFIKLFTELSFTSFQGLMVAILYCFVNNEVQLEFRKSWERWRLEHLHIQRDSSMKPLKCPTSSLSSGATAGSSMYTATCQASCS
SMILES,pEC50 [1],Emax [1] [%],pEC50 [2],Emax [2] [%],pEC50 [3],pEC50 [4]
CC[C@H](C)[C@H](NC(=O)[C@H](CC(C)C)NC(=O)[C@H](Cc1c[nH]c2ccccc12)NC(=O)[C@H](CCC(N)=O)NC(=O)[C@@H](NC(=O)[C@H](Cc1ccccc1)NC(=O)[C@H](C)NC(=O)[C@H](CCCCNC(=O)COCCOCCNC(=O)COCCOCCNC(=O)CC[C@H](NC(=O)CCCCCCCCCCCCCCCCCCC(=O)O)C(=O)O)NC(=O)[C@H](CCC(N)=O)NC(=O)[C@H](C)NC(=O)[C@@H](NC(=O)[C@H](CCCCN)NC(=O)[C@H](CC(=O)O)NC(=O)[C@H](CC(C)C)NC(=O)C(C)(C)NC(=O)[C@@H](NC(=O)[C@H](CO)NC(=O)[C@H](Cc1ccc(O)cc1)NC(=O)[C@H](CC(=O)O)NC(=O)[C@H](CO)NC(=O)[C@@H](NC(=O)[C@H](Cc1ccccc1F)NC(=O)[C@@H](NC(=O)CNC(=O)[C@H](CCC(=O)O)NC(=O)CCNC(=O)C(C)(C)c1cc(F)cc(C#N)c1)[C@@H](C)O)[C@@H](C)O)[C@@H](C)CC)[C@@H](C)CC)C(C)C)C(=O)N[C@@H](C)C(=O)NCC(=O)NCC(=O)N1CCC[C@H]1C(=O)N[C@@H](CO)C(=O)N[C@@H](CO)C(=O)NCC(=O)N[C@@H](C)C(=O)N1CCC[C@H]1C(=O)N1CCC[C@H]1C(=O)N1CCC[C@H]1C(=O)N[C@@H](CO)C(N)=O [Compound 233] ({Isobutyryl(2-(3-CN-5-F-Ph))-βAla}-EGT[Phe(2-F)]TSDYSI[Aib]LDKIAQK([AEEA-AEEA-γGlu-C20 diacid])AFVQWLIAGGPSSGAPPPS-NH2),9.00 to 10.00,121,9.00 to 10.00,109,> 6.00,< 6.00
CC[C@H](C)[C@H](NC(=O)[C@H](CCCCN)NC(=O)[C@H](CC(=O)O)NC(=O)[C@H](CC(C)C)NC(=O)C(C)(C)NC(=O)[C@@H](NC(=O)[C@H](CO)NC(=O)[C@H](Cc1ccc(O)cc1)NC(=O)[C@H](CC(=O)O)NC(=O)[C@H](CO)NC(=O)[C@@H](NC(=O)[C@H](Cc1ccccc1)NC(=O)[C@@H](NC(=O)CNC(=O)[C@H](CCC(=O)O)NC(=O)CCNC(=O)C(C)(C)c1cc(F)cc(C#N)c1)[C@@H](C)O)[C@@H](C)O)[C@@H](C)CC)C(=O)N[C@@H](C)C(=O)N[C@@H](CCC(N)=O)C(=O)N[C@@H](CCCCNC(=O)COCCOCCNC(=O)COCCOCCNC(=O)CC[C@H](NC(=O)CCCCCCCCCCCCCCCCCCC(=O)O)C(=O)O)C(=O)N[C@@H](C)C(=O)N[C@@H](Cc1ccccc1)C(=O)N[C@H](C(=O)N[C@@H](CCC(N)=O)C(=O)N[C@@H](Cc1c[nH]c2ccccc12)C(=O)N[C@@H](CC(C)C)C(=O)N[C@@H](CC(C)C)C(=O)N[C@@H](C)C(=O)NCC(=O)NCC(=O)N1CCC[C@H]1C(=O)N[C@@H](CO)C(=O)N[C@@H](CO)C(=O)NCC(=O)N[C@@H](C)C(=O)N1CCC[C@H]1C(=O)N1CCC[C@H]1C(=O)N1CCC[C@H]1C(=O)N[C@@H](CO)C(N)=O)C(C)C [Compound 190] ({Isobutyryl(2-(3-CN-5-F-Ph))-βAla}-EGTFTSDYSI[Aib]LDKIAQK([AEEA-AEEA-γGlu-C20 diacid])AFVQWLLAGGPSSGAPPPS-NH2),8.00 to 9.00,98,8.00 to 9.00,100,< 6.00,< 6.00
CC[C@H](C)[C@H](NC(=O)[C@H](CC(C)C)NC(=O)[C@H](Cc1c[nH]c2ccccc12)NC(=O)[C@H](CCC(N)=O)NC(=O)[C@@H](NC(=O)[C@H](Cc1ccccc1)NC(=O)[C@H](C)NC(=O)[C@H](CCCCNC(=O)COCCOCCNC(=O)COCCOCCNC(=O)CC[C@H](NC(=O)CCCCCCCCCCCCCCCCCCC(=O)O)C(=O)O)NC(=O)[C@H](CCC(N)=O)NC(=O)[C@H](C)NC(=O)[C@@H](NC(=O)[C@H](CCCCN)NC(=O)[C@H](CC(=O)O)NC(=O)[C@H](CC(C)C)NC(=O)C(C)(C)NC(=O)[C@@H](NC(=O)[C@H](CO)NC(=O)[C@H](Cc1ccc(O)cc1)NC(=O)[C@H](CC(=O)O)NC(=O)[C@H](CO)NC(=O)[C@@H](NC(=O)[C@H](Cc1ccccc1)NC(=O)[C@@H](NC(=O)CNC(=O)[C@H](CCC(=O)O)NC(=O)[C@H](CNC(=O)C(C)(C)c1cc(F)cc(C#N)c1)C(C)C)[C@@H](C)O)[C@@H](C)O)[C@@H](C)CC)[C@@H](C)CC)C(C)C)C(=O)N[C@@H](C)C(=O)NCC(=O)NCC(=O)N1CCC[C@H]1C(=O)N[C@@H](CO)C(=O)N[C@@H](CO)C(=O)NCC(=O)N[C@@H](C)C(=O)N1CCC[C@H]1C(=O)N1CCC[C@H]1C(=O)N1CCC[C@H]1C(=O)N[C@@H](CO)C(N)=O [Compound 171] ({Isobutyryl(2-(3-CN-5-F-Ph))}-[X68]EGTFTSDYSI[Aib]LDKIAQK([AEEA-AEEA-γGlu-C20 diacid])AFVQWLIAGGPSSGAPPPS-NH2),7.00 to 8.00,109,6.00 to 7.00,94,< 6.00,< 6.00
CC[C@H](C)[C@H](NC(=O)[C@H](CC(C)C)NC(=O)[C@H](Cc1c[nH]c2ccccc12)NC(=O)[C@H](CCC(N)=O)NC(=O)[C@@H](NC(=O)[C@H](Cc1ccccc1)NC(=O)[C@H](C)NC(=O)[C@H](CCCCNC(=O)COCCOCCNC(=O)COCCOCCNC(=O)CC[C@H](NC(=O)CCCCCCCCCCCCCCCCCCC(=O)O)C(=O)O)NC(=O)[C@H](CCC(N)=O)NC(=O)[C@H](C)NC(=O)[C@@H](NC(=O)[C@H](CCCCN)NC(=O)[C@H](CC(=O)O)NC(=O)[C@H](CC(C)C)NC(=O)C(C)(C)NC(=O)[C@@H](NC(=O)[C@H](CO)NC(=O)[C@H](Cc1ccc(O)cc1)NC(=O)[C@H](CC(=O)O)NC(=O)[C@H](CO)NC(=O)[C@@H](NC(=O)[C@H](Cc1ccccc1)NC(=O)[C@@H](NC(=O)CNC(=O)[C@H](CCC(=O)O)NC(=O)CCNC(=O)C(C)(C)n1cc(Br)cn1)[C@@H](C)O)[C@@H](C)O)[C@@H](C)CC)[C@@H](C)CC)C(C)C)C(=O)N[C@@H](C)C(=O)NCC(=O)NCC(=O)N1CCC[C@H]1C(=O)N[C@@H](CO)C(=O)N[C@@H](CO)C(=O)NCC(=O)N[C@@H](C)C(=O)N1CCC[C@H]1C(=O)N1CCC[C@H]1C(=O)N1CCC[C@H]1C(=O)N[C@@H](CO)C(N)=O [Compound 131] ({X14-βAla}-EGTFTSDYSI[Aib]LDKIAQK([AEEA-AEEA-γGlu-C20 diacid])AFVQWLIAGGPSSGAPPPS-NH2),9.00 to 10.00,102,7.00 to 8.00,96,< 6.00,< 6.00
CC[C@H](C)[C@H](NC(=O)[C@H](CC(C)C)NC(=O)[C@H](Cc1c[nH]c2ccccc12)NC(=O)[C@H](CCC(N)=O)NC(=O)[C@@H](NC(=O)[C@H](Cc1ccccc1)NC(=O)[C@H](C)NC(=O)[C@H](CCCCNC(=O)COCCOCCNC(=O)COCCOCCNC(=O)CC[C@H](NC(=O)CCCCCCCCCCCCCCCCCCC(=O)O)C(=O)O)NC(=O)[C@H](CCC(N)=O)NC(=O)[C@H](C)NC(=O)[C@@H](NC(=O)[C@H](CCCCN)NC(=O)[C@H](CC(=O)O)NC(=O)[C@H](CC(C)C)NC(=O)C(C)(C)NC(=O)[C@@H](NC(=O)[C@H](CO)NC(=O)[C@H](Cc1ccc(O)cc1)NC(=O)[C@H](CC(=O)O)NC(=O)[C@H](CO)NC(=O)[C@@H](NC(=O)[C@H](Cc1ccccc1)NC(=O)[C@@H](NC(=O)CNC(=O)[C@H](CCC(=O)O)NC(=O)CCNC(=O)C(C)(C)c1cccnc1)[C@@H](C)O)[C@@H](C)O)[C@@H](C)CC)[C@@H](C)CC)C(C)C)C(=O)N[C@@H](C)C(=O)NCC(=O)NCC(=O)N1CCC[C@H]1C(=O)N[C@@H](CO)C(=O)N[C@@H](CO)C(=O)NCC(=O)N[C@@H](C)C(=O)N1CCC[C@H]1C(=O)N1CCC[C@H]1C(=O)N1CCC[C@H]1C(=O)N[C@@H](CO)C(N)=O [Compound 239] ({X1-βAla}-EGTFTSDYSI[Aib]LDKIAQK([AEEA-AEEA-γGlu-C20 diacid])AFVQWLIAGGPSSGAPPPS-NH2),> 10.00,91,8.00 to 9.00,99,< 6.00,> 6.00

# Source: US12281149B2, “Modulators of G-protein coupled receptors” (priority 2021, dated 2025)
